Results on one compound are retold here after US20110045459A1, “Molecular determinants of EGFR kinase inhibitor response in glioblastoma” (priority 2005, published 2011).

“Also recorded” adds a separate entry of the source.

The assay deals with U87MG glioblastoma cells. Put plainly: Relative sensitivity to erlotinib of U87MG lines expressing PTEN, EGFR, EGFRvIII (crystal violet). The assay is classed as cell-based. To be noted: erlotinib 0-10 μM, 10-14 days, U87-PTEN. The method, then:
FIG. 3. […] 1000 cells/well of each cell line was seeded into 96-well plates in 8 replicates. […] Experiments were repeated 3 times in 8 replicates for each condition.
Following retroviral transduction we selected the following stable cell lines: U87-PTEN, U87-EGFR, U87-PTEN-EGFR, U87-EGFRvIII and U87-PTEN-EGFRvIII.
Functional analysis of effect of EGFR, EGFRvIII and PTEN coexpression: Human EGFR and EGFRvIII cDNAs were retrovirally introduced into U87MG and U87MG-PTEN over-expressing cells and selected for antibiotic resistance. Multiple stable clones were analyzed for the expression of PTEN, EGFR or EGFRvIII by immunoblot. […] The background reading of the wells containing medium alone was subtracted from experimental wells.

On to `C#Cc1cccc(Nc2ncnc3cc(OCCOC)c(OCCOC)cc23)c1` [Erlotinib], for which the “sensitization of glioblastoma cells to erlotinib” value is “EGFRvIII and PTEN co-expression sensitizes glioblastoma cells to erlotinib; also recorded: EGFRvIII sensitized glioblastoma cells to erlotinib, but only when PTEN was co-expressed”.
